From patent US11008325B2, “Inhibitors of cancer invasion, attachment, and/or metastasis” (VIRGINIA COMMONWEALTH UNIVERSITY, priority 2016, dated 2021)
“Also recorded” adds a separate entry of the source. Where two headings read alike, the source gives them in different places.

Columns and labels:
[1] = biological target: T1, MDA-9 PDZ12 tandem domain (PDZ1) (Homo sapiens, UniProt O00560); experiment: NMR [15N,1H] HSQC chemical shift change and titration binding
T1 construct: the MDA-9/Syntenin construct used for the screen contains both PDZ domains; made in house
T1 sequence (O00560 110-274): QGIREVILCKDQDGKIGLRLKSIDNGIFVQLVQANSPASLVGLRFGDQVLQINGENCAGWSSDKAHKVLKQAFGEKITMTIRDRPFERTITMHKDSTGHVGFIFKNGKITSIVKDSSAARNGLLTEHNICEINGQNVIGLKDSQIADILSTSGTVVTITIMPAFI
Protocol: FIGS. 4A-4E. FIG. 4A. […] FIG. 4B. Superposition of 2D [^15N, ^1H]-HSQC spectra of 50 μM MDA-9 PDZ12 tandem domain in the absence and presence of 350 μM 113B7. FIG. 4C. Binding curve and representative spectra for the titration of 113B7 against MDA-9 PDZ12 tandem domain. Top: Zoom of box region in FIG. 4B after titrating 113B7 into Mda9 PDZ, tandem domain. […] Bottom: Titration curve of 113B7 for residue A147. […] FIG. 4D. […] FIG. 4E. Docked structure of 113B7 in complex with MDA-9 PDZ tandem domain (PDB: 1W9E). The pose was obtained with GOLD. Two PDZ domains of MDA-9 are labeled.
NMR based screening of an house assembled fragment library of about 5,000 compounds using [^15N,^1H] […] The proposed docked structure of PDZ1i in the PDZ1 domain and interdomain of MDA-9/Syntenin is shown in FIGS. 4A-4E and FIG. 5, while the chemical structure of PDZ1i is also shown in FIGS. 4A-4E and FIG. 5.
In all binding assays, the MDA-9/Syntenin construct used for the screen contains both PDZ domains. Constructs uniformly labeled with ^15N and ^13C or ^13C-Met selectively labeled are used for binding, mapping and structural studies. These same proteins are used for ITC binding studies.

[2] = system: Mcl-1, Bcl-xL, Bid, MT1-MMP-PEX domain, IL20R, RKIP, Jnk2, Ubc13, SIAH1, Ship2-SAM; experiment: binding to panel of protein-protein interaction proteins; conditions: 50 μM, 1:1 ligand/protein ratio
Protocol: In addition, the molecules are tested against a series of proteins available in the laboratory involved in protein-protein interactions including Mcl-1, Bcl-xL, Bid, MT1-MMP-PEX domain, IL20R, RKIP, Jnk2 (JIP-binding site Met labeled), Ubc13, SIAH1, and Ship2-SAM. […] In designing compounds using elements of the libraries, particular emphasis will be put on drug-like properties of the compounds. […] Additionally, the MTD and PK properties on selected compounds prior to their eventual evaluations in vivo in will be addressed. Preliminarily, PK studies with 113B7 indicate that the compound is stable and long-lived with nearly 100% bioavailability when administered IP (FIG. 53).

[3] = system: ARCaPM-Luc cells; experiment: PDZ1i pre-treated ARCaPM-Luc cells injected intravenously; format: in vivo, athymic nude mice
Protocol: (§1) FIG. 19A-19F. PDZ1i suppresses prostate cancer metastasis and tumor progression. FIG. 19A) Survival data for athymic nude mice in which DMSO or PDZ1i pre-treated ARCaPM cells were injected. FIG. 19B) Survival data for athymic nude mice which were injected with (n=5, each group) ARCaPM-Luc (1×10^6 cells in 100 μl saline) through an intracardiac route. Mice received either vehicle or PDZ1i every alternative day (9 injections during the first three months) and maintained until they needed to be euthanized. FIG. 19C) Survival data for C57BL/6 mice injected through the intracardiac route with RM1-Luc. Vehicle or PDZ1i was administered through intraperitoneal injection every alternate day (total 3 injections during the first week). Survival curves were generated using 6 control vehicle-treated and 5 PDZ1i-treated. Kaplan—Meier survival curves were prepared using Graph Pad software. […] Graphical representation of the average prostate weights from control and treated groups. FIG. 19E and FIG. 19F) Photomicrographs representing the histological changes in prostate sections obtained from 6-month old Hi-Myc mice receiving either vehicle (FIG. 19E) or PDZ1i (FIG. 19F).
(§2) To evaluate potential therapeutic efficacy of PDZ1i four sets of in vivo experiments were conducted. […]

[4] = system: ARCaPM-Luc cells; experiment: ARCaPM-Luc experimental metastasis model, PDZ1i treatment; format: in vivo, athymic nude mice; conditions: 30 mg/kg body weight I.P.
Protocol: as §1, §2

[5] = system: melanocytes; experiment: toxicity to melanocytes; format: cell-based; conditions: tested up to 100 μM

SMILES: Cc1cc(NC(=O)c2nc3[nH]c4c(c(=O)n3n2)CCC4)c(C)cc1NC(=O)CCc1nnc(-c2ccccc2)o1 [113B7, N-(2,5-dimethyl-4-(3-(5-phenyl-1,3,4-oxadiazol-2-yl)propanamido)phenyl)-8-oxo-5,6,7,8-tetrahydro-4H-cyclopenta[d][1,2,4]triazolo[1,5-a]pyrimidine-2-carboxamide]
- dissociation constant / affinity in words ([1]; NMR titration (and ITC)): low micromolar range; also recorded: micromolar affinity
- Kd ([1]; NMR titration following backbone amide of residue 147, read-out: Kd values): 21.4 ± 8.62 µM
- Kd ([1]; NMR titration, read-out: upper limit for the dissociation constant of the complex, Kd): < 10 µM
- Binding affinity ranking ([1]; chemical shift change (DPPM) of backbone amide of residue 147, 50 μM PDZ12, compound at 1:1 molar ratio): 4 (4 for DPPM 0.06-0.08)
- Kd ([1]; estimated by NMR titration in 2D HSQC experiments (Table 4), read-out: Kd): ~10 µM
- binding to protein-protein interaction panel [2]: no appreciable binding
- cancer cell concentrations in the lungs ([3]; cells pre-treated with 50 μM PDZ1i): lower cancer cell concentrations in the lungs
- survival ([3]; cells pre-treated with PDZ1i): survived longer
- metastatic lesions by BLI [4]: significantly fewer lesions
- survival [4]: prolonged survival
- toxicity to melanocytes [5]: did not show any significant toxicity
